The results in this text go back to US20080171716A1, “NUCLEIC ACID MODULATION OF TOLL-LIKE RECEPTOR-MEDIATED IMMUNE STIMULATION” (Protiva Biotherapeutics, Inc., priority 2006, published 2008).

Series [1] addresses T1, TLR7 (Mus musculus, UniProt P58681).
T1 sequence (P58681 27-1050): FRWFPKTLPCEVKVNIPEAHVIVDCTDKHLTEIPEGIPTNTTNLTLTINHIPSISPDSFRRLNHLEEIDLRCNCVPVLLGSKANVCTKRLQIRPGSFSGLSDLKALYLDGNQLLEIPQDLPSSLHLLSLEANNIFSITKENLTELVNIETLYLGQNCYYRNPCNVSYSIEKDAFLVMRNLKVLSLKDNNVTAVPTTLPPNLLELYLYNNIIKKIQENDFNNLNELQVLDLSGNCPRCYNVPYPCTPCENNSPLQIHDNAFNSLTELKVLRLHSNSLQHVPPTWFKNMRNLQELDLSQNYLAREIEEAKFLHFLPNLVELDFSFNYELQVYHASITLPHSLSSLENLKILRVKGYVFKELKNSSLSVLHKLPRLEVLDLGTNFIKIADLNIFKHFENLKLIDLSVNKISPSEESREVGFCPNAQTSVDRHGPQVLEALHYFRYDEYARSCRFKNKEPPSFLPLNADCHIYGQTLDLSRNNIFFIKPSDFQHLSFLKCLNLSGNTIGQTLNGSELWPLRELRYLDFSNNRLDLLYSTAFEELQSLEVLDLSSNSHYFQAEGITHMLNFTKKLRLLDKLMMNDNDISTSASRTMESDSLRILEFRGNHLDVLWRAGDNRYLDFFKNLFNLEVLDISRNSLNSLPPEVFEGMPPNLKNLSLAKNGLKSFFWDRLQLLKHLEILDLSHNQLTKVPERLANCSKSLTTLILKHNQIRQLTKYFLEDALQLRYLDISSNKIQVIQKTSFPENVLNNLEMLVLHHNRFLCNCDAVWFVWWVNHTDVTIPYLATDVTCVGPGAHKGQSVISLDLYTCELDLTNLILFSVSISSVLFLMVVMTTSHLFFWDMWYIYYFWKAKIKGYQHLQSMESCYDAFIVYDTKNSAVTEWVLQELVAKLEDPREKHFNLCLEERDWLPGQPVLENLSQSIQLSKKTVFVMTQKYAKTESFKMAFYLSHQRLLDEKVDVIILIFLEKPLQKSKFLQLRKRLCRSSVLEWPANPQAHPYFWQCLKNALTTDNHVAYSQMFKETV
The series is described as follows: Loxoribine-induced IFN-α/IL-6 production in murine Flt3L-derived dendritic cells. The series is classed as cell-based. Details: Femurs and tibiae of female Balb/C mice were isolated; endogenous in cells; host or cells: Flt3L-derived dendritic cells cultured from bone marrow of female Balb/C mice. The conditions noted are these: murine Flt3L DC; 30 μM Lox; 0.2 μM RNA; 24 h. The protocol: (§1) Lipid Encapsulation of RNA and ODN. RNA or ODN were encapsulated in liposomes by a process of spontaneous vesicle formation as described in Judge et al., supra, and Jeffs et al., Pharm. Res., 22:362-372 (2005).
(§2) Flt3L-derived dendritic cells (DC) were generated as described in Gilliet et al., J. Exp. Med., 195:953-958 (2002), using 100 ng/ml murine Flt3-ligand (Peprotech) supplemented media. Femurs and tibiae of female Balb/C mice were isolated and rinsed in sterile PBS. The ends of bones were cut and marrow harvested in complete media (RPMI 1640, 10% heat inactivated FBS, 1% penicillin/streptomycin, 2 mM L-glutamine, 1 mM sodium pyruvate, 25 mM HEPES, 50 μM 2-mercaptoethanol). Bone marrow cells were passed through a 70 μm strainer and centrifuged at 1000 rpm for 7 min. and resuspended in complete media supplemented with 100 ng/ml murine Flt3L to 2×10^6 cells/ml. 2 ml of cells were seeded in 6-well plates and 1 ml fresh media was added every two to three days. On day 9 of culture, non-adherent cells were washed in complete media and plated into 96-well plates at concentrations ranging from 0.5 to 2.5×10^5 cells/well. […]
(§3) Cytokine ELISA. All cytokines were quantified using sandwich ELISA kits according to the manufacturer's instructions. […]

Series [2] has as its target T1, TLR7. Put plainly: Immunostimulatory ssRNA-induced IFN-α/IL-6 production in murine Flt3L-derived dendritic cells. Details: Femurs and tibiae of female Balb/C mice were isolated; endogenous in cells; host or cells: Flt3L-derived dendritic cells cultured from bone marrow of female Balb/C mice. The conditions noted are these: murine Flt3L DC; 1:1 molar ratio; 24 h. The format is cell-based. Here is the method: as §1, §2, §3

The target of series [3] is T1, TLR7. The series is described as follows: In vivo cytokine induction by formulated ssRNA in mice. The arrangement: from tissue; host or cells: whole animal: female Balb/C mice, plasma cytokines; species or system Balb/C mice. The conditions noted are these: IV. Here is the method:
Cytokine ELISA. All cytokines were quantified using sandwich ELISA kits according to the manufacturer's instructions. These were mouse and human IFN-α (PBL Biomedical; Piscataway, N.J.) and IL-6 (eBioscience; San Diego, Calif.).
In Vivo Cytokine Induction. Animal studies were performed at Protiva Biotherapeutics in accordance with Canadian Council on Animal Care guidelines and following protocol approval by the local Animal Care and Use Committee. Female Balb/C mice were subjected to a two-week quarantine and acclimation period prior to use at six to eight-weeks of age. RNA formulations were administered by standard injection in the lateral tail vein in 0.2 ml PBS. Six hours after injection, blood was collected by cardiac puncture and processed as plasma for cytokine analysis. In experiments studying inhibition of cytokine induction by loxoribine, formulated RNA (100 μg) was administered IV 2 h prior to IV administration of 1 mg loxoribine in PBS. Blood was collected by cardiac puncture 2 h after administration of loxoribine and processed as plasma for cytokine analysis.

[4] abbreviates: 1:1 molar ratio in lipid particles, 40 μg βgal AS RNA, plasma 6 h.
[5] abbreviates: plasma 6 h after administration.

Turning to “polyUmod21: 2′OMe-uridine homopolymer of 21 nucleotides in length (UUUUUUUUUUUUUUUUUUUUU; all 2'-O-methyl, backbone not given here)”, in the series with TLR7 [1], the “inhibition of Lox-mediated IFN-α induction” value is 87+/−11% and the “inhibition of Lox-mediated IL-6 induction” value is on record as 69+/−1%. In the series with TLR7 [2], the “IFN-α production induced by immunostimulatory ssRNA when co-administered” value is given as “completely abrogated measurable” and the “IL-6 production induced by immunostimulatory ssRNA when co-administered” value is given as “completely abrogated measurable”. Further, in the series with TLR7 [3] (setting [4]), the “IFN-α induction by ssRNA agonist when co-formulated” value is listed as “eliminated measurable” and the “IL-6 induction by ssRNA agonist when co-formulated” value was “eliminated measurable”. Moreover, in the series with TLR7 [3] (setting [5]), the “plasma IFN-α after administration of the formulated RNA alone” value is “no measurable cytokine response” and the “plasma IL-6 after administration of the formulated RNA alone” value was “no measurable cytokine response”.
